Measured values from patent US8470787B2, “Hydrates of erythromycin salts, preparation and use thereof” (priority 2008, dated 2013).
Like-named read-outs stand apart in the source and are kept apart here.

Legend:
[1] = accelerated stability test (sealed vial, 30° C., HPLC content and related substances); type: physicochemical
Method: The hydrates of erythromycin salts according to the present invention can be stably stored. A sample of the above hydrates was sealed in a vial, and an accelerated stability test was conducted at 30° C. and changes of the content and related substances were measured by a HPLC method (C18 reverse phase column, 0.01M KH2PO4-acetonitrile (60:40) as the mobile phase, detective wavelength: 215 nm, column temperature: 35° C., flow rate: 1.0 ml/min) (upon different hydrates of erythromycin salts, such as crystalline hydrates of erythromycin thiocyanate, the pH of the mobile phase can be adjusted and KH2PO4 can be changed into NaH2PO4, the detective wavelength can be changed into 210 nm, and the column temperature can be set at 35-55° C., such as 50° C. for analysis and measurement). […] As compared to the anhydrous of erythromycin salt, the hydrates of erythromycin salts according to the present invention have a lower hygroscopicity, i.e., has a better stability of hygroscopicity, which facilitates the package and storage thereof, or is a more advantageously stable form for storage relative to the anhydrous.

Anaerobe = test: antibacterial activity, tube double dilution method, clinically obtained bacteria; type: cell-based
Method: (§1) The antibacterial activities of the hydrates of erythromycin salts are determined by culturing clinically obtained bacteria and measuring in accordance with pharmacological test methods (the tube double dilution method), and the results are shown in the following tables 9, 10, 11 and 12.

Bacillus fragilis = test: as above; type: cell-based; conditions: for MIC50 / MIC90: 15 strains; for MIC: range over 15 strains
Method: as §1

[2] = test system: Streptococcus hemolyticus; test: as above; type: cell-based; conditions: for MIC50 / MIC90: 16 strains; for MIC: range over 16 strains
Method: as §1

Propionibacterium = test: as above; type: cell-based; conditions: for MIC50 / MIC90: 18 strains; for MIC: range over 18 strains
Method: as §1

Neisseria gonorrhoeae = test: as above; type: cell-based; conditions: for MIC50 / MIC90: 16 strains; for MIC: range over 16 strains
Method: as §1

Bacillus influenzae = test: as above; type: cell-based; conditions: for MIC50 / MIC90: 17 strains; for MIC: range over 17 strains
Method: as §1

Pneumococcus = test: as above; type: cell-based; conditions: for MIC50 / MIC90: 18 strains; for MIC: range over 18 strains
Method: as §1

[3] = test system: Staphylococcus epidermidis; test: as above; type: cell-based; conditions: 21 strains
Escherichia coli = test: as above; type: cell-based; conditions: 21 strains
Staphylococcus aureus = test: as above; type: cell-based; conditions: 26 strains
Streptococcus viridan = test: as above; type: cell-based; conditions: 23 strains
[4] = hygroscopic test according to China Pharmacopeia CP2005; type: physicochemical; conditions: 25° C.

Compound: CC[C@H]1OC(=O)[C@H](C)[C@@H](O[C@H]2C[C@@](C)(OC)[C@@H](O)[C@H](C)O2)[C@H](C)[C@@H](O[C@@H]2O[C@H](C)C[C@H](N(C)C)[C@H]2O)[C@](C)(O)C[C@@H](C)C(=O)[C@H](C)[C@@H](O)[C@]1(C)O.O.O.O.O.O.O.O=C(O)[C@H](O)[C@@H](O)[C@H](O[C@@H]1O[C@H](CO)[C@H](O)[C@H](O)[C@H]1O)[C@H](O)CO [erythromycin lactobionate hexahydrate]
- Assay (%) ([1]; month 0): 99.7%
- Form ([1]; month 0): off-white powder
- Assay (%) ([1]; month 1): 99.6%
- Form ([1]; month 1): off-white powder
- Assay (%) ([1]; month 2): 100.2%
- Form ([1]; month 2): off-white powder
- Assay (%) ([1]; month 3): 99.8%
- Form ([1]; month 3): off-white powder
- Assay (%) ([1]; month 6): 99.6%
- Form ([1]; month 6): off-white powder
- MIC50 (Anaerobe; 16 strains): 2 µg/mL
- MIC90 (Anaerobe; 16 strains): 16 µg/mL
- MIC (Anaerobe; range over 16 strains): 0.06 to 64 µg/mL
- MIC50 (Bacillus fragilis): 4 µg/mL
- MIC90 (Bacillus fragilis): 16 µg/mL
- MIC (Bacillus fragilis): 0.5 to 64 µg/mL
- MIC50 [2]: 0.06 µg/mL
- MIC90 [2]: 32 µg/mL
- MIC [2]: 0.03 to 32 µg/mL
- MIC50 (Propionibacterium): 0.06 µg/mL
- MIC90 (Propionibacterium): 0.12 µg/mL
- MIC (Propionibacterium): 0.03 to 16 µg/mL
- MIC50 (Neisseria gonorrhoeae): 0.25 µg/mL
- MIC90 (Neisseria gonorrhoeae): 1 µg/mL
- MIC (Neisseria gonorrhoeae): 0.06 to 2 µg/mL
- MIC50 (Bacillus influenzae): 4 µg/mL
- MIC90 (Bacillus influenzae): 8 µg/mL
- MIC (Bacillus influenzae): 0.12 to 8 µg/mL
- MIC50 (Pneumococcus): 0.06 µg/mL
- MIC90 (Pneumococcus): 1 µg/mL
- MIC (Pneumococcus): 0.03 to 0.5 µg/mL
- MIC50 [3]: 16 µg/mL
- MIC50 (Escherichia coli): 4 µg/mL
- MIC50 (Staphylococcus aureus): 0.12 µg/mL
- MIC50 (Streptococcus viridan): 0.06 µg/mL
- MIC90 (Streptococcus viridan): 0.5 µg/mL

Compound: erythromycin thiocyanate hemitri(1.5)hydrate
- Assay (%) ([1]; month 0): 99.9%
- Form ([1]; month 0): off-white powder
- Assay (%) ([1]; month 1): 100.3%
- Form ([1]; month 1): off-white powder
- Assay (%) ([1]; month 2): 100.5%
- Form ([1]; month 2): off-white powder
- Assay (%) ([1]; month 3): 100.1%
- Form ([1]; month 3): off-white powder
- Assay (%) ([1]; month 6): 100.2%
- Form ([1]; month 6): off-white powder
- Hygroscopic weight gain %, relative to 0 h ([4]; RH 75%, 48 h): 3.12%

Compound: CC[C@H]1OC(=O)[C@H](C)[C@@H](O[C@H]2C[C@@](C)(OC)[C@@H](O)[C@H](C)O2)[C@H](C)[C@@H](O[C@@H]2O[C@H](C)C[C@H](N(C)C)[C@H]2O)[C@](C)(O)C[C@@H](C)C(=O)[C@H](C)[C@@H](O)[C@]1(C)O [erythromycin lactobionate trihydrate]
- Assay (%) ([1]; month 0): 99.9%
- Form ([1]; month 0): off-white powder
- Assay (%) ([1]; month 1): 100.2%
- Form ([1]; month 1): off-white powder
- Assay (%) ([1]; month 2): 99.8%
- Form ([1]; month 2): off-white powder
- Assay (%) ([1]; month 3): 100.1%
- Form ([1]; month 3): off-white powder
- Assay (%) ([1]; month 6): 99.9%
- Form ([1]; month 6): off-white powder
- MIC50 (Bacillus fragilis; Bacillus, read-out: MIC50): 4 µg/mL
- MIC90 (Bacillus fragilis; Bacillus, read-out: MIC90): 16 µg/mL
- MIC (Bacillus fragilis; Bacillus, read-out: MIC): 0.5 to 64 µg/mL
- MIC50 ([2]; Streptococcus pyogenes, read-out: MIC50): 0.06 µg/mL
- MIC90 ([2]; Streptococcus pyogenes, read-out: MIC90): 32 µg/mL
- MIC [2]: 0.03 to 32 µg/mL
- MIC50 (Propionibacterium; Propionibacterium, read-out: MIC50): 0.06 µg/mL
- MIC90 (Propionibacterium; Propionibacterium, read-out: MIC90): 0.12 µg/mL
- MIC (Propionibacterium; Propionibacterium, read-out: MIC): 0.03 to 16 µg/mL
- MIC50 (Neisseria gonorrhoeae; Neisseria gonorrhoeae, read-out: MIC50): 0.25 µg/mL
- MIC90 (Neisseria gonorrhoeae; Neisseria gonorrhoeae, read-out: MIC90): 1 µg/mL
- MIC (Neisseria gonorrhoeae; Neisseria gonorrhoeae, read-out: MIC): 0.06 to 2 µg/mL
- MIC50 (Bacillus influenzae; Bacillus, read-out: MIC50): 4 µg/mL
- MIC90 (Bacillus influenzae; Bacillus, read-out: MIC90): 8 µg/mL
- MIC (Bacillus influenzae; Bacillus, read-out: MIC): 0.12 to 8 µg/mL
- MIC50 (Pneumococcus; read-out: MIC50): 0.06 µg/mL
- MIC90 (Pneumococcus; read-out: MIC90): 1 µg/mL
- MIC (Pneumococcus; read-out: MIC): 0.03 to 0.5 µg/mL
- MIC50 ([3]; Staphylococcus epidermidis, read-out: MIC50): 16 µg/mL
- MIC50 (Escherichia coli; Escherichia coli, read-out: MIC50): 4 µg/mL
- MIC50 (Staphylococcus aureus; Staphylococcus aureus, read-out: MIC50): 0.12 µg/mL
- MIC50 (Streptococcus viridan; Streptococcus, read-out: MIC50): 0.06 µg/mL
- MIC90 (Streptococcus viridan; Streptococcus, read-out: MIC90): 0.5 µg/mL

Compound: CC[C@H]1OC(=O)[C@H](C)[C@@H](O[C@H]2C[C@@](C)(OC)[C@@H](O)[C@H](C)O2)[C@H](C)[C@@H](O[C@@H]2O[C@H](C)C[C@H](N(C)C)[C@H]2O)[C@](C)(O)C[C@@H](C)C(=O)[C@H](C)[C@@H](O)[C@]1(C)O.O=C(O)[C@H](O)[C@@H](O)[C@H](O[C@@H]1O[C@H](CO)[C@H](O)[C@H](O)[C@H]1O)[C@H](O)CO [Erythromycin lactobionate anhydrous, reference compound]
- hygroscopicity (in words), compared with the anhydrous ([4]; relative humidity 75%): more hygroscopic
